# Reference: the supplement of paper PMC10307832
# Columns and labels:
# Experiment in all cases: relative viability (nuclei count vs DMSO), 5 days (fraction); higher = more cells survive
# Pemetrexed + Vorinostat = compound: Nc1nc2[nH]cc(CCc3ccc(C(=O)N[C@@H](CCC(=O)O)C(=O)O)cc3)c2c(=O)[nH]1 [Pemetrexed] + O=C(CCCCCCC(=O)Nc1ccccc1)NO [Vorinostat] (partner 1 µM)
# Procedure, shortened: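 Nuclei were stained with Hoechst during a one-step fixation (final 0.05% Triton X-100, 1% formaldehyde, 1 ug/ml Hoechst) carried out 5 days after dosing, then counted on 4× images. The cells, lung cancer lines in 1536-well plates, had been dosed by pin tool the day after seeding with one drug alone or a fixed anchor-drug dose plus five library-drug doses (not always all listed) in √10 steps. Relative viability is the nuclei count in treated wells divided by that in vehicle wells, and each value is the median of duplicate plates.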
# Idelalisib = compound: CC[C@H](Nc1ncnc2[nH]cnc12)c1nc2cccc(F)c2c(=O)n1-c1ccccc1 [Idelalisib]
# Procedure, shortened: (§1)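 On vehicle-anchored 1536-well plates, lung cancer cell lines held overnight at 37 °C were pinned with five library-drug doses (not always all listed) spaced by √10. With no medium change over 5 days, they were then fixed, permeabilised and Hoechst-stained in one step and imaged at 4×. MetaXpress counted nuclei, and viability is the median across plates of treated-well over vehicle-well nuclei. Acceptance needed control CV below 25% and at least one doubling.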
# Pemetrexed = compound: Nc1nc2[nH]cc(CCc3ccc(C(=O)N[C@@H](CCC(=O)O)C(=O)O)cc3)c2c(=O)[nH]1 [Pemetrexed]
# Procedure, shortened: as §1
Cell Line,relative viability (Pemetrexed + Vorinostat; first compound 0.002 µM),relative viability (Pemetrexed + Vorinostat; first compound 0.006325 µM),relative viability (Pemetrexed + Vorinostat; first compound 0.06325 µM),relative viability (Pemetrexed + Vorinostat; first compound 0.2 µM),relative viability (Idelalisib; 0.04 µM),relative viability (Idelalisib; 0.1265 µM),relative viability (Idelalisib; 0.4 µM),relative viability (Idelalisib; 1.265 µM),relative viability (Idelalisib; 4 µM),relative viability (Pemetrexed; 0.002 µM),relative viability (Pemetrexed; 0.006325 µM),relative viability (Pemetrexed; 0.02 µM),relative viability (Pemetrexed; 0.06325 µM),relative viability (Pemetrexed; 0.2 µM),"relative viability (Pemetrexed; 0.2 µM, anchor plate)",relative viability (Pemetrexed + Vorinostat; first compound 0.02 µM)
NCI-H650,0.378,0.552,0.427,0.453,0.938,1.01,0.885,1.05,0.889,0.851,0.905,0.987,0.857,1.02,0.925,–
IA-LM,0.95,0.988,0.808,0.982,0.975,1.05,1.02,1.23,0.955,0.838,0.937,0.959,0.988,0.865,–,1.1
A-427,0.855,0.865,0.876,0.708,1.14,1.01,0.883,1.01,0.904,0.94,1.05,1.07,0.992,0.939,0.98,0.867
NCI-H2347,0.49,0.487,0.468,0.436,1.1,1.03,0.904,1.14,0.866,0.931,0.965,1.14,0.9,0.655,0.42,0.609
NCI-H1793,0.613,0.792,0.986,0.796,1.01,1.02,0.569,0.846,0.545,0.909,0.807,0.986,0.987,0.93,0.923,0.69
NCI-H1651,0.553,0.562,0.44,0.548,1.01,1.01,0.885,0.965,0.938,0.951,0.91,1.04,0.95,0.945,0.616,0.642
HCC-78,–,0.447,0.294,0.328,1.05,0.923,0.811,1.01,0.729,0.674,0.98,0.877,0.43,–,–,0.401
NCI-H23,0.464,0.592,0.713,0.62,1.15,1.07,0.69,0.713,1,0.893,0.987,1.18,0.91,0.905,0.714,0.77
LOU-NH91,0.878,0.906,0.591,0.395,1.07,0.882,0.878,0.762,0.932,0.948,1,1.06,0.678,0.521,0.388,1.02
LXF-289,0.625,0.758,0.74,0.718,1.05,1.07,1,1.07,1.04,0.938,0.999,1.04,1.02,0.939,0.905,0.795
NCI-H460,–,0.683,0.57,0.0651,0.996,1.01,1.01,1.02,1,0.878,0.969,1.03,0.745,0.116,0.065,0.784
NCI-H1792,–,–,–,–,1.08,0.942,0.653,1.09,0.85,1.09,0.897,1,0.893,0.94,0.968,–
EMC-BAC-2,0.397,0.734,0.402,0.256,1.25,0.989,0.878,1.01,1.11,0.868,1.04,1.12,0.966,0.782,0.444,0.539
CAL-12T,0.634,0.683,0.704,0.821,1.1,1.08,1.01,1.11,1.08,0.936,0.938,1.16,0.967,0.863,1.19,0.852
ChaGo-K-1,0.721,0.735,0.293,0.233,1.09,0.914,0.946,1.02,0.992,1.05,0.942,0.98,0.418,0.312,0.261,0.751
COR-L 105,0.954,0.784,0.857,0.688,1.03,0.997,0.802,0.976,0.752,0.947,0.896,1.14,0.883,0.978,1.12,0.849
NCI-H1944,0.43,0.487,0.592,0.531,1.21,0.943,0.785,1.01,0.803,0.716,0.99,1.04,0.956,0.969,0.619,0.565
NCI-H2009,0.631,0.7,0.681,0.654,0.998,1.02,0.974,1.06,1.04,0.905,0.953,1.14,0.997,0.976,1.03,0.776
SW 900,0.499,0.523,0.576,0.406,0.855,0.851,0.701,0.853,0.696,0.809,0.907,0.948,0.814,0.487,0.496,0.682
NCI-H441,0.693,0.788,0.695,0.262,1.13,0.941,–,1.12,1.05,0.917,1.01,1.1,0.688,0.452,0.255,0.763
NCI-H1623,–,–,–,–,1,0.961,0.846,0.949,0.817,0.899,1.04,0.976,0.912,0.955,–,–
NCI-H1437,0.853,0.813,0.596,0.364,1.01,0.995,0.965,1.12,1.05,0.741,0.974,0.998,0.704,0.493,0.319,0.806

Cell Line,relative viability (Pemetrexed + Vorinostat; first compound 0.002 µM),relative viability (Pemetrexed + Vorinostat; first compound 0.006325 µM),relative viability (Pemetrexed + Vorinostat; first compound 0.06325 µM),relative viability (Pemetrexed + Vorinostat; first compound 0.2 µM),relative viability (Idelalisib; 0.04 µM),relative viability (Idelalisib; 0.1265 µM),relative viability (Idelalisib; 0.4 µM),relative viability (Idelalisib; 1.265 µM),relative viability (Idelalisib; 4 µM),relative viability (Pemetrexed; 0.002 µM),relative viability (Pemetrexed; 0.006325 µM),relative viability (Pemetrexed; 0.02 µM),relative viability (Pemetrexed; 0.06325 µM),relative viability (Pemetrexed; 0.2 µM),"relative viability (Pemetrexed; 0.2 µM, anchor plate)",relative viability (Pemetrexed + Vorinostat; first compound 0.02 µM)
PC-14,0.656,0.636,0.226,0.123,1.07,1.05,0.951,0.922,0.959,0.975,1.01,1.08,0.602,0.142,0.136,0.775
LCLC-103H,0.663,0.753,0.881,0.763,1.12,0.979,0.822,1.09,0.91,0.89,1.01,1.01,1.02,0.935,0.477,0.857
COR-L23,0.474,0.398,0.186,0.136,1.12,1.05,0.931,1.14,0.949,0.998,0.979,1.04,0.375,0.211,0.2,0.424
H3255,0.66,0.767,0.817,0.596,1.06,0.946,0.925,0.959,0.879,0.819,1.03,0.986,1.07,0.827,0.587,0.753
NCI-H2126,0.638,0.719,0.798,0.688,1.02,1.08,0.837,1.03,0.931,0.974,0.992,1.04,1,0.91,0.684,0.777
HCC-366,0.208,0.341,0.386,0.269,1.06,0.993,0.986,0.987,0.966,0.964,0.985,1.07,0.991,–,–,0.393
LU99A,0.488,0.464,0.466,0.385,1.08,1.08,0.814,1.14,1.05,0.869,0.92,1.07,1.08,–,–,0.495
HOP-62,0.387,0.581,0.626,0.547,1.07,0.998,0.936,1.14,0.963,0.864,0.949,1.08,0.964,–,–,0.721
HCC-15,0.821,0.76,0.69,0.345,1.12,1.04,0.914,1.13,1.02,0.823,0.948,1.09,0.978,0.402,0.227,0.878
HARA,0.517,0.611,0.595,0.231,1.02,1.05,0.783,1.23,0.794,0.944,1.05,1.12,0.904,0.225,0.241,0.512
SK-MES-1,1.07,0.994,1.11,0.993,1.04,1.01,0.885,0.749,0.745,0.979,0.932,1.07,0.976,0.934,0.94,1.18
NCI-H1355,0.526,0.603,0.599,0.62,1.03,1,0.871,0.961,0.861,0.787,0.962,0.999,1.05,1,1.04,0.667
NCI-H727,1.18,1.12,1.16,1.06,1.07,1.16,0.715,0.987,0.887,0.844,0.931,0.899,0.958,0.899,–,1.26
NCI-H520,0.671,0.7,0.681,0.709,0.958,0.987,0.84,0.922,0.79,0.938,0.969,0.95,0.936,0.975,0.693,0.718
NCI-H838,0.72,0.727,0.661,0.308,0.958,0.993,0.851,0.921,0.753,0.99,0.917,1.08,0.869,0.359,0.257,0.781
HCC-44,0.972,1.11,1.11,1.13,1.04,0.953,0.98,1.08,1.13,0.839,0.989,1.06,0.995,0.796,0.647,1.14
EBC-1,–,–,–,–,1,1.1,0.986,0.965,0.88,0.951,0.951,1.09,1.01,0.735,–,–
NCI-H1703,–,–,–,–,0.916,1.07,0.809,0.832,0.509,0.917,0.871,1.39,1.06,0.92,–,–
NCI-H1563,–,–,–,–,0.96,0.997,0.909,0.946,0.876,0.907,0.955,0.991,1.03,1.01,0.799,–
NCI-H1299,–,–,–,–,1.02,1.07,1.03,1.04,1,1.01,0.998,1.06,0.991,0.959,–,–
A549,–,–,–,–,1.01,0.956,0.747,1.04,0.825,0.938,0.948,1.09,0.973,1.01,–,–
Calu-6,–,–,–,–,1.04,1.04,0.977,0.998,0.947,0.92,0.96,1.1,1,0.886,–,–
